Reference: patent US20240307414A1, “METHODS AND MATERIALS FOR TREATING PROSTATE CANCER” (Mayo Foundation for Medical Education and Research, priority 2020, published 2024)
Entries after “also recorded” stand apart in the source; their conditions may differ. Read-outs that look alike come from different tables or passages of the source.

Key:
[1] = tested on: 11 genes in MC-PRX-01 and MC-PRX-06 PDX tumors; experiment: qRT-PCR of the 11 genes in post treatment PDX tumors; format: in vivo, mice; conditions: MC-PRX-01 and MC-PRX-06 tumors harvested after treatment
[2] = tested on: PDX organoids MC-PRX-01 and MC-PRX-05; experiment: PDX derived organoid culture and cytotoxicity assay (3D cell titer)
[3] = tested on: LNCaP parental and LNCaP-AbiRes cells; experiment: Cytotoxicity and proliferation assay (Cyquant direct assay), LNCaP parental and AbiRes; format: cell-based, human; conditions: for IC50: LNCaP, single treatment preliminary experiments, concentration used in combination with Abi (FIG. 6B), except PD-0325901, read-out: Concentrations corresponding to IC50 of each drug
Experimental: (§1) 22Rv1 and LNCaP cells purchased from ATCC were routinely cultured in RPMI1640 medium (Gibco, Grand Island, NY) supplemented with 10% FBS (Atlanta Biologicals, Flowery Branch, GA) and 1% Pen-Strep. […] Abi resistant cells (LNCaP-AbiRes or 22Rv1-AbiRes) were compared with parental cells for viability and gene expression after Abi and other treatments.
(§2) Forty eight hours before abiraterone treatment, cell was seeded in phenol red-free RPMI (Gibco, Grand Island, NY) supplemented with 10% charcoal stripped FBS (Thermo Fisher Scientific, Waltham, MA), and 50 nM pregnenolone was added after 24 hours.

[4] = tested on: 11 genes (CCNA2, CCNB1, CCNB2, PRC1, SMC2, DLGAP5, ECT2, FBXO5, CDK1, NCAPG, KIF4A); experiment: qRT-PCR of the 11 genes in cell lines and PDX organoids after drug treatment; format: cell-based, human; conditions: for expression of the 11 genes (qRT-PCR): 22Rv1 and LNCaP parental/AbiRes cells, organoids MC-PRX-01 and MC-PRX-05, alone or with Abi
Experimental: Total RNA for qRT-PCR was extracted from tumor organoids or cell lines using Quick-RNA MiniPrep Kit (Zymo Research, Irvine, CA) according to the manufacturer's instructions. qRT-PCR was performed using the Power SYBR® Green RNA-to-CT 1-Step Kit (Life Technologies, Grand Island, NY) and QuantiTect® (QIAGEN, Germantown, MD) or PrimeTime® (IDT, Inc., Coralville, Iowa) pre-designed qPCR primers (IDT Coralville, IA). Gene expression analyses were performed using ΔΔCt method, and β-actin was used as the internal reference. Three independent experiments were performed. Primer sequences are in Table 1.

[5] = tested on: 22Rv1 parental and 22Rv1-AbiRes cells; experiment: Cytotoxicity and proliferation assay (Cyquant direct assay), 22Rv1 parental and AbiRes; format: cell-based, human; conditions: single treatment preliminary experiments, concentration used in combination with Abi (FIG. 6A), read-out: Concentrations corresponding to IC50 of each drug
Experimental: as §1, §2

MC-PRX-01 PDX tumor = experiment: MC-PRX-01 PDX model treated with abiraterone ± palbociclib/PHA-793887, 35 days; format: in vivo, mice
Experimental: All patient specimens were collected as part of the PROMOTE study as described elsewhere (see, for example, Champoux. Annu. Rev. Biochem., 70, 369-413 (2001); and Kellner et al., Lancet Oncol., 3, 235-243 (2002)). Briefly, pathology confirmed metastatic tumor biopsy tissues of mCRPC was renal capsule xenografted and 25 mg testosterone pellet was subcutaneously implanted into 6-8 weeks old male CB17 NOD-SCID mice (Jackson laboratories, Bar Harbor, Maine; Charles River Laboratories, Raleigh, North Carolina) and observed for at least 6 months or till the tumor reached 1.0-1.5 cm at maximal length, when sub-xenografts were expanded by subcutaneous implantation with harvested PDX tumor mixed with Matrigel (Corning, Corning, New York) with no exogenous testosterone supplied. Early generation PDX tumors were collected for cryo-storage and next-generation sequencing. Pathology confirmed PDX model generated from AA/P non-responder bone metastatic tumor biopsy tissues were employed to test the in vivo tumor response to abiraterone+Mito/Dox/Palb/PHA. After PDX tumor reached approximately 100 mm3, mice were randomized to 6 groups. […] Body weight and tumor volumes (width^2×length/2) were measured two to three times per week with a digital caliper, and the average tumor volumes were determined. At the end of the treatment period, mice were euthanized and the tumors were removed, dissected and frozen at −80° C. for further analysis.

[6] = tested on: metastatic / castration-resistant prostate cancer; conditions: patients, literature; cited from earlier work

With `COc1cccc2c1C(=O)c1c(O)c3c(c(O)c1C2=O)C[C@@](O)(C(=O)CO)C[C@@H]3O[C@H]1C[C@H](N)[C@H](O)[C@H](C)O1` [doxorubicin] the “expression of the 11 genes in PDX tumors after treatment (qRT-PCR)” value [1] was “significantly downregulated”.

In the case of `C[C@]12CC[C@H](O)CC1=CC[C@@H]1[C@@H]2CC[C@]2(C)C(c3cccnc3)=CC[C@@H]12` [abiraterone], the “inhibition of organoid growth” value ([2]; abiraterone alone at the highest tested concentration, MC-PRX-01 and MC-PRX-05 organoids) is reported as “less than 10%”.

In the case of `O=C1c2c(O)ccc(O)c2C(=O)c2c(NCCNCCO)ccc(NCCNCCO)c21` [mitoxantrone], the IC50 ([3]; Homo sapiens) is reported as 10 nM, the “potency relative to the other identified drugs in cytotoxicity experiments” value ([2]; range of doses tested, FIG. 6) is reported as “superior to others; also recorded: most potent” and the “expression of the 11 genes (qRT-PCR)” value [4] is reported as “most consistently suppressed the expression of the 11 genes; also recorded: more significant effects on the 11 gene suppression”. The “suppression of the 11 genes in LNCaP Abi-resistant cells compared to parental cells” value ([4]; LNCaP AbiRes vs parental) was “better suppression effects” and the “expression of the 11 genes in PDX tumors after treatment (qRT-PCR)” value [1] was “significantly downregulated”.

For `O=C(NOC[C@H](O)CO)c1ccc(F)c(F)c1Nc1ccc(I)cc1F` [PD-0325901, mirdametinib], the “response of LNCaP cells to the MEK inhibitor” value ([3]; LNCaP harbors a Q56P mutation) was “conferring resistance to this MEK inhibitor” and the “expression of the 11 genes (qRT-PCR)” value [4] was “less consistency in the suppression”.

For `CC(C)CC(=O)Nc1n[nH]c2c1CN(C(=O)C1CCN(C)CC1)C2(C)C` [PHA-793887], the IC50 [3] was 100 nM, the “expression of the 11 genes (qRT-PCR)” value [4] was “less consistency in the suppression” and the IC50 [5] was 100 nM. The tumor growth (MC-PRX-01 PDX tumor; 35 days) was “inhibited tumor growth”, the “tumor growth inhibition as single treatment” value (MC-PRX-01 PDX tumor; 35 days, tested dosage) was “did not exhibit statistically significant inhibition” and the “sensitization of the tumor to Abi treatment” value (MC-PRX-01 PDX tumor; combination with Abi) was “sensitize the tumor to Abi treatment”.

In the case of `CC(=O)O[C@H]1CC[C@@]2(C)C(=CC[C@@H]3[C@@H]2CC[C@]2(C)C(c4cccnc4)=CC[C@@H]32)C1` [abiraterone acetate], the overall survival [6] is given as “extend overall survival significantly”.
